# Legend:
# [1] = molecular target: T1, PA4915-LBD (Pseudomonas aeruginosa, UniProt Q9HUP8); assay type: binding; settings: read-out: KD by ITC ^ b
# T1 sequence (Q9HUP8 32-189 limits assumed): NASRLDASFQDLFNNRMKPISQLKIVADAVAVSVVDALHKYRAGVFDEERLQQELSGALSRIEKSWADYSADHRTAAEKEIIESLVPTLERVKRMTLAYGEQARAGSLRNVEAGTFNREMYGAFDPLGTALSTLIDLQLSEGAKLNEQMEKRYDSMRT
# [2] = tested on: PctC-Tar; settings: read-out: EC50 by FRET ^ a; attractant response, tethering buffer pH 7.0, Hill fit
# [3] = tested on: PctB-Tar; settings: read-out: EC50 by FRET ^ a; attractant response, tethering buffer pH 7.0, Hill fit
# [4] = tested on: PctA-Tar; settings: read-out: EC50 by FRET ^ a; attractant response, tethering buffer pH 7.0, Hill fit
# [5] = molecular target: T2, PctB-LBD (PA4310) (Pseudomonas aeruginosa, UniProt Q9HW91); assay type: binding; settings: read-out: KD by ITC ^ b
# T2 sequence (Q9HW91 32-276 limits assumed): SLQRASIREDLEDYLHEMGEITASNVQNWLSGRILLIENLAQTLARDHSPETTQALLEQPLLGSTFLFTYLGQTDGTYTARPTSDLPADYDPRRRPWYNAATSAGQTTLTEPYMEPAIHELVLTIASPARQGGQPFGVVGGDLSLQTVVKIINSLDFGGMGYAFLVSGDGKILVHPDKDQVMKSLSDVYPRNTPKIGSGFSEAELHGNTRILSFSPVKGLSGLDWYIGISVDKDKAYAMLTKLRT
compound,measurement,setting,value
NCCc1ccccc1 [2-Phenylethylamine],Kd,[1],58 ± 11 µM
NCCCCC(=O)O [5-Aminovalerate],EC50,[2],1.5 ± 0.2 µM
NCCC[C@H](N)C(=O)O [L-Ornithine],EC50,[3],10.2 ± 0.8 µM
same,EC50,[4],1.8 ± 0.2 µM
same,Kd,[5],559 ± 80 µM
COC(=O)CCCN [Methyl 4-aminobutyrate],EC50,[2],2.9 ± 0.4 µM
